Reference: patent publication US20040162422A1, “Chemical compounds” (priority 2001, published 2004)

Legend:
[1] = target: T1, human adenosine A1 receptors (Homo sapiens, UniProt P30542); test: Reporter gene experiments in yeast (agonist activity, β-galactosidase/FDG readout); format: cell-based; parameters: key: equipotent concentration ratio relative to NECA = 1; conditions: ECR = equipotent concentration ratio relative to NECA = 1; agonist potency, yeast reporter gene assay
T1 construct: expressed in transfected cells
T1 sequence (P30542 1-326): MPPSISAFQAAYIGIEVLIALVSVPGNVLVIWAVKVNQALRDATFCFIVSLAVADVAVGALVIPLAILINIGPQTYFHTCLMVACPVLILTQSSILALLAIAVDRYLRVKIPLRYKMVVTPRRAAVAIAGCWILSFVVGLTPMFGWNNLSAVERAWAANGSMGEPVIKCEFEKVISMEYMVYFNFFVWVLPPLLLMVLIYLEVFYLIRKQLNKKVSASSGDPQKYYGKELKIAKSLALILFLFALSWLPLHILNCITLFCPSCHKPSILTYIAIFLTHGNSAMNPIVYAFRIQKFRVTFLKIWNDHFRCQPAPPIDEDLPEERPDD
Method: Reporter Gene Experiments in Yeast
Agonist activity at human adenosine A1 receptors was measured in yeast cell lines expressing the adenosine A1 receptor together with a chimeric G-protein which linked receptor stimulation to the expression of the enzyme β-galactosidase. Cells were plated out in 96-well plates in culture medium to which was added 2 mM 3-AT (3-aminotriazole) to limit basal growth in the absence of agonist stimulation, and FDG (fluorescein di-β-D-galactopyranoside) as substrate for β-galactosidase, which converts FDG to fluorescein. For measurement of potency, agonists were added to the appropriate wells at a concentration range of approximately 10^−10-10^−5M and incubated at 30° C. for 18 hours. At this point the amount of fluorescein generated was measured in a spectrophotometer. From these readings, the concentration-dependence of the stimulation by the agonist can be calculated. One of the agonists tested on each 96-well plate was the standard non-selective agonist, N-ethylcarboxamidoadenosine (NECA), and the potency of all test agonists is expressed relative to that of the NECA standard.
(ECR=equipotent concentration ratio relative to NECA=1)

[2] = target: T2, human adenosine A3 receptors (Homo sapiens, UniProt P0DMS8); test: Reporter gene experiments in CHO cells (CRE/SPAP, inhibition of forskolin-stimulated SPAP production); format: cell-based; conditions: ECR = equipotent concentration ratio relative to NECA = 1; agonist potency, CHO CRE/SPAP reporter gene assay
T2 construct: expressed in transfected cells; host or cells: Chinese hamster ovary (CHO) cells with CRE/SPAP/HYG reporter
T2 sequence (P0DMS8 1-318): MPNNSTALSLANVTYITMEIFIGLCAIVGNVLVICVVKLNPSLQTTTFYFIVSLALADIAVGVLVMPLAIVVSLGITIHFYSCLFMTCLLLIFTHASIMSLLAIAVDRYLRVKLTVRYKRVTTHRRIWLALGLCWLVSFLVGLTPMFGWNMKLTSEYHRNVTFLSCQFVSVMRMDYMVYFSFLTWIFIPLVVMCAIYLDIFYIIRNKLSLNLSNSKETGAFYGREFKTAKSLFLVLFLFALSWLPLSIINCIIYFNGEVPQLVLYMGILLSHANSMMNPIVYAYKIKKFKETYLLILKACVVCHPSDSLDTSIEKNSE
Excerpt: The compounds useful in the invention are agonists at the adenosine A1 receptor. Preferably they are selective agonists at the adenosine A1 receptor. By selective is meant that the affinity for the A1 receptor is at least 2 times, preferably 5 times and more preferably 10 times greater than the other adenosine receptor subtypes, particularly A3. Agonist selectivity of compounds against other human adenosine receptors can be determined using Chinese hamster ovary (CHO) cells transfected with the gene for the relevant human adenosine receptor following a method based on that of Castanon, K V. and Spevak, W. (1994) Biochem. Biophys. Res. Commun. 198, 626-631. The CHO cells are also transfected with cyclic AMP response elements promoting the gene for secreted placental alkaline phosphatase (SPAP) (Wood, K V. (1995) Cuff. Opinion. Biotechnology, 6, 50-58). The effect of test compounds is determined by their effects on basal levels of cAMP (A2a) or on forskolin-enhanced cAMP (A1 and A3) as reflected by changes in levels of SPAP. EC50 values for compounds are determined as a ratio to that of the non-selective agonist N-ethyl carboxamidoadenosine (NECA). “Adenosine receptors: New opportunities for future drugs” (S. A. Poulsen et al, Bioorg. Med. Chem,. 1998, 6, 619-641) summarises disease conditions that may be treated with adenosine A1 agonists.
Reporter Gene Experiments in CHO cells
Agonist activity at human adenosine A3 receptors was measured in Chinese hamster ovary (CHO) cells containing the CRE/SPAP/HYG (CRE=cyclic AMP response element; HYG=hygromycin resistance; SPAP=secreted placental alkaline phosphatase) reporter gene elements, which upon stimulation of cAMP levels produced SPAP. A cell line was used which was stably transfected with the human adenosine A3 receptor in addition to the above elements. Cells were plated out in 96-well plates in culture medium and incubated at 37° C. for 1 hour. For measurement of potency, agonists were added to the appropriate wells at a concentration range of approximately 10^−10-10^−5M. 15 Min later, cAMP levels were stimulated by addition of a maximal concentration of forskolin. All cells were then incubated for a further 5 hours at 37° C., and cooled to room temperature, after which a substrate for the phosphatase (para-nitrophenol phosphate, pNPP), which is converted by SPAP to a coloured reagent) was then added and the 96-well plates were read in a plate reader. From these readings, the concentration-dependence of the inhibition by the agonist for forskolin-stimulated SPAP production can be calculated. As with the yeast assays, one of the agonists tested on each 96-well plate was the standard non-selective agonist, N-ethylcarboxamidoadenosine (NECA), and the potency of all test agonists is expressed relative to that of the NECA standard.

Molecule | Adenosine A1 receptor ECR* [1] | Adenosine A3 receptor ECR* [2]
C#C[C@H]1O[C@@H](n2cnc3c(NC4Cc5ccccc5C4)ncnc32)[C@H](O)[C@@H]1O [Example 4, (2R,3R,4S,5R)-2-[6-(2,3-Dihydro-1H-inden-2-ylamino)-9H-purin-9-yl]-5-ethynyltetrahydrofuran-3,4-diol] | 27.96 | >407
C#C[C@H]1O[C@@H](n2cnc3c(Nc4ccc(Cl)cc4F)ncnc32)[C@H](O)[C@@H]1O [Example 33, (2R,3R,4S,5R)-2-{6-[(4-Chloro-2-fluorophenyl)amino]-9H-purin-9-yl}-5-ethynyltetrahydrofuran-3,4-diol] | 26.31 | >215
C#C[C@H]1O[C@@H](n2cnc3c(NC4CCN(C(=O)OCC)CC4)ncnc32)[C@H](O)[C@@H]1O [Example 2, Ethyl 4-({9-[(2R,3R,4S,5R)-5-ethynyl-3,4-dihydroxytetrahydrofuran-2-yl]-9H-purin-6-yl}amino)piperidine-1-carboxylate] | 10 | >3580
C#C[C@H]1O[C@@H](n2cnc3c(NC4CCCCC4)ncnc32)[C@H](O)[C@@H]1O [Example 7, (2R,3R,4S,5R)-2-[6-(Cyclohexylamino)-9H-purin-9-yl]-5-ethynyltetrahydrofuran-3,4-diol] | 11.4 | >178
C#C[C@H]1O[C@@H](n2cnc3c(NCCS(=O)(=O)NCC)ncnc32)[C@H](O)[C@@H]1O [Example 1, N-Ethyl-2-({9-[(2R,3R,4S,5R)-5-ethynyl-3,4-dihydroxytetrahydrofuran-2-yl]-9H-purin-6-yl}amino)ethanesulfonamide] | 9.95 | >1070
C#C[C@H]1O[C@@H](n2cnc3c(N[C@H]4[C@H]5CC[C@H](C5)[C@@H]4C)ncnc32)[C@H](O)[C@@H]1O [Example 8, (2R,3R,4S,5R)-5-Ethynyl-2-(6-{[(1S,2S,3S,4R)-3-methylbicyclo[2.2.1]hept-2-yl]amino}-9H-purin-9-yl)tetrahydrofuran-3,4-diol] | 7.94 | >178
C#C[C@H]1O[C@@H](n2cnc3c(Nc4ccc(F)cc4Cl)ncnc32)[C@H](O)[C@@H]1O [Example 35, (2R,3R,4S,5R)-2-{6-[(2-chloro-4-fluorophenyl)amino]-9H-purin-9-yl}-5-ethynyltetrahydrofuran-3,4-diol] | 6.48 | >974
C#C[C@H]1O[C@@H](n2cnc3c(Nc4ccc(F)cc4C)ncnc32)[C@H](O)[C@@H]1O [Example 36, (2R,3R,4S,5R)-5-Ethynyl-2-{6-[(4-fluoro-2-methylphenyl)amino]-9H-purin-9-yl}tetrahydrofuran-3,4-diol] | 7.15 | >1117
C#C[C@H]1O[C@@H](n2cnc3c(NC4CC4)ncnc32)[C@H](O)[C@@H]1O [Example 10, (2R,3R,4S,5R)-2-[6-(Cyclopropylamino)-9H-purin-9-yl]-5-ethynyltetrahydrofuran-3,4-diol] | 6.89 | >1066
C#C[C@H]1O[C@@H](n2cnc3c(N[C@H]4CCO[C@H]4C)ncnc32)[C@H](O)[C@@H]1O [Example 14, (2R,3R,4S,5R)-5-Ethynyl-2-(6-{[(2S,3S)-2-methyltetrahydrofuran-3-yl]amino}-9H-purin-9-yl)tetrahydrofuran-3,4-diol] | 14.86 | >502
C#C[C@H]1O[C@@H](n2cnc3c(Nc4cccc(F)c4C)ncnc32)[C@H](O)[C@@H]1O [Example 37, (2R,3R,4S,5R)-5-ethynyl-2-{6-[(3-fluoro-2-methylphenyl)amino]-9H-purin-9-yl}tetrahydrofuran-3,4-diol] | 4.79 | >145
C#C[C@H]1O[C@@H](n2cnc3c(Nc4ccc(F)c(F)c4)ncnc32)[C@H](O)[C@@H]1O [Example 43, (2R,3R,4S,5R)-2-{6-[(3,4-Difluorophenyl)amino]-9H-purin-9-yl}-5-ethynyltetrahydrofuran-3,4-diol] | 34.9 | >188
C#C[C@H]1O[C@@H](n2cnc3c(NCC4CC4)ncnc32)[C@H](O)[C@@H]1O [Example 11, (2R,3R,4S,5R)-2-{6-[(Cyclopropylmethyl)amino]-9H-purin-9-yl}-5-ethynyltetrahydrofuran-3,4-diol] | 5 | >210
(2R,3R,4S,5R)-5-Ethynyl-2-{6-[(trans-4-hydroxycyclohexyl)amino]-9H-purin-9-yl}tetrahydrofuran-3,4-diol [Example 19] | 8.57 | >3208
C#C[C@H]1O[C@@H](n2cnc3c(NCCc4ccccc4)ncnc32)[C@H](O)[C@@H]1O [Example 6, (2R,3R,4S,5R)-5-ethynyl-2-{6-[(2-phenylethyl)amino]-9H-purin-9-yl}tetrahydrofuran-3,4-diol] | 24.6 | >1059
C#C[C@H]1O[C@@H](n2cnc3c(N[C@H]4C[C@H]5CCC[C@H]54)ncnc32)[C@H](O)[C@@H]1O (relative stereo) [Example 17, (2R,3R,4S,5R)-2-{6-[(1R*,5R*,6S*)-Bicyclo[3.2.0]hept-6-ylamino]-9H-purin-9-yl}-5-ethynyltetrahydrofuran-3,4-diol] | 2.88 | >416
(2R,3R,4S,5R)-2-[6-(cyclobutylamino)-9H-purin-9-yl]-5-ethynyltetrahydrofuran-3,4-diol [Example 5] | 3 | >196
C#C[C@H]1O[C@@H](n2cnc3c(Nc4cccc(Cl)c4C)ncnc32)[C@H](O)[C@@H]1O [Example 38, (2R,3R,4S,5R)-2-{6-[(3-Chloro-2-methylphenyl)amino]-9H-purin-9-yl}-5-ethynyltetrahydrofuran-3,4-diol] | 5.45 | >145
C#C[C@H]1O[C@@H](n2cnc3c(N[C@H]4CCC[C@@H]4O)ncnc32)[C@H](O)[C@@H]1O [Example 3, (2R,3R,4S,5R)-5-Ethynyl-2-(6-{[(1S,2S)-2-hydroxycyclopentyl]amino}-9H-purin-9-yl)tetrahydrofuran-3,4-diol] | 6.48 | >823
